This note sets out measurements from patent publication US9073853B2, “Cycloalkane carboxylic acid derivatives as CXCR3 receptor antagonists” (Sanofi, priority 2011, dated 2015).

Structures are written as SMILES. Counter-ions that a name gives are not always drawn.

Sequence of human CXCR3-A receptor (P49682 whole entry): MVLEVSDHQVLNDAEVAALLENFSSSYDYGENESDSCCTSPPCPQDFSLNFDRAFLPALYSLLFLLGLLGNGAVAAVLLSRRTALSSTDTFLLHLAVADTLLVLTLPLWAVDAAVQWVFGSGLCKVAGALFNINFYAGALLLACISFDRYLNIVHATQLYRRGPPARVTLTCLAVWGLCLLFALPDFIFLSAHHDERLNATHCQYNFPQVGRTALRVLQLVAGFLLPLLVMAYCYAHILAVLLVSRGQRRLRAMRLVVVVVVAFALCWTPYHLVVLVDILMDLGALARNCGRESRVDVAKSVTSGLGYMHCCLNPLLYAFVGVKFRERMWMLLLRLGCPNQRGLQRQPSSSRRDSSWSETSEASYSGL

The target in this assay is human CXCR3-A receptor (Homo sapiens (Human), UniProt P49682). Put plainly: 125I-CXCL10 competition radioligand binding assay. The settings on record: displacement of 125I-CXCL10 from membranes of CHO cells expressing human recombinant CXCR3-A. Here is the method:
IC50 values were determined for the test compounds and used to explore the structure-activity relationships (SAR). […] This cell line was registered in Sanofi-Aventis cell line bank. […] Cell suspension was diluted with PBS and cells were collected with centrifugation at 230 g for 10 minutes at 10° C. with a Juan centrifuge. […] The supernatant was carefully collected and centrifuged at 100,000×g for 60 min at 4° with a Beckman Avanti J30 centrifuge. […] Protein concentration was determined with Bio-Rad protein assay (Cat No 500-0006). Membrane aliquots were stored at -80° C. […] The composition of the binding assay buffer was determined in a course of detailed optimization procedure. […] Binding reaction was initiated by adding of membranes (10-20 μg proteins, approximately 5×10^5 cell equivalents) to the reaction mixture. After 60 minutes of incubation at 25° C. the reaction was terminated by rapid filtration over GF/B glass fiber filters that were pre-soaked with 0.5% polyethyleneimine (Fluka Analytical, P3143) for 1 hour, using a Skatron cell harvester device. Filters then were washed with 8 ml of ice-cold wash buffer (modified binding buffer in which BSA was omitted and the concentration of NaCl was adjusted to 500 mM concentration). The radioactivity retained on the filters was measured by a Wizard 1470 Automatic Gamma counter. Test compounds were dissolved prior to the binding assay at a concentration of 10 mM in DMSO. Stock solutions were stored at -20° C. for not longer than 3 months. […] Before adding these solutions of test compound to the binding reaction mixture, an intermediate dilution procedure was applied, in which 30 μL of each solution sample was transferred into a dilution tube containing 970 μL of binding assay buffer. […] The IC50 values and Hill slopes for competition binding data were obtained using nonlinear four-parametric curve fitting method.
(In general: Displacement assays read how much labelled ligand stays bound in the presence of the test substance.)
As for `CCOC(=O)[C@H]1CC[C@H](CN(Cc2ccc(OCCN3C(=O)CCC3=O)c(OC)c2)C(C)c2ccc3c(c2)CCO3)CC1` (relative stereo) [Example 1.1, trans-4-[([1-(2,3-Dihydro-benzofuran-5-yl)-ethyl]-{4-[2-(2,5-dioxo-pyrrolidin-1-yl)-ethoxy]-3-methoxy-benzyl}-amino)-methyl]-cyclohexanecarboxylic acid ethyl ester], the IC50 – broadly, the concentration that gives 50% inhibition – turned out to be 177 nM.

Turning to `COc1cc(CN(C[C@H]2CC[C@H](C(=O)O)CC2)C2CCc3cc(Cl)ccc32)ccc1CCCN1C(=O)CCC1=O` (stereo in doubt) [Example 45, trans-4-[(((R)-5-Chloro-indan-1-yl)-{4-[3-(2,5-dioxo-pyrrolidin-1-yl)-propyl]-3-methoxy-benzyl}-amino)-methyl]-cyclohexanecarboxylic acid], the IC50 was 160 nM.

As to `COc1cc(CN(C[C@H]2CC[C@H](C(=O)O)CC2)C2CCc3cc(Cl)ccc32)ccc1CCCN1C(=O)CCC1=O` (stereo in doubt) [Example 46, trans-4-[(((S)-5-Chloro-indan-1-yl)-{4-[3-(2,5-dioxo-pyrrolidin-1-yl)-propyl]-3-methoxy-benzyl}-amino)-methyl]-cyclohexanecarboxylic acid], the half-inhibitory concentration (IC50) is 1000 nM.

For the compound `COc1cc(CN(C[C@H]2CC[C@H](C(=O)O)CC2)[C@@H](C)c2ccc(Cl)cc2)ccc1OCCN1C(=O)CCC1=O` [Example 5, trans-4-[([(S)-1-(4-Chloro-phenyl)-ethyl]-{4-[2-(2,5-dioxo-pyrrolidin-1-yl)-ethoxy]-3-methoxy-benzyl}-amino)-methyl]-cyclohexanecarboxylic acid], the 50% inhibitory concentration (IC50) turned out to be 19 nM.

As to `COc1cc(CN(C[C@H]2CC[C@H](C(=O)O)CC2)[C@H](C)c2ccc(Cl)cc2)ccc1OCCN1C(=O)CCC1=O` [Example 6, trans-4-[([(R)-1-(4-Chloro-phenyl)-ethyl]-{4-[2-(2,5-dioxo-pyrrolidin-1-yl)-ethoxy]-3-methoxy-benzyl}-amino)-methyl]-cyclohexanecarboxylic acid], the IC50 was 20 nM.

As for `Cc1cc(CN(C[C@H]2CC[C@H](C(=O)O)CC2)[C@@H](C)c2ccc(Cl)cc2)ccc1OCCN1C(=O)CCC1=O` [Example 7, trans-4-[([(S)-1-(4-Chloro-phenyl)-ethyl]-{4-[2-(2,5-dioxo-pyrrolidin-1-yl)-ethoxy]-3-methyl-benzyl}-amino)-methyl]-cyclohexanecarboxylic acid], the IC50 was determined as 38 nM.

For the compound `Cc1cc(CN(C[C@H]2CC[C@@H](C(=O)O)CC2)[C@@H](C)c2ccc(Cl)cc2)ccc1OCCN1C(=O)CCC1=O` [Example 8, cis-4-[([(S)-1-(4-Chloro-phenyl)-ethyl]-{4-[2-(2,5-dioxo-pyrrolidin-1-yl)-ethoxy]-3-methyl-benzyl}-amino)-methyl]-cyclohexanecarboxylic acid], the IC50 turned out to be 3810 nM.

Regarding `Cc1cc(CN(C[C@H]2CC[C@H](C(=O)O)CC2)[C@H](C)c2ccc(Cl)cc2)ccc1OCCN1C(=O)CCC1=O` [Example 9, trans-4-[([(R)-1-(4-Chloro-phenyl)-ethyl]-{4-[2-(2,5-dioxo-pyrrolidin-1-yl)-ethoxy]-3-methyl-benzyl}-amino)-methyl]-cyclohexanecarboxylic acid], the IC50 was determined as 32 nM.

Turning to `COc1cc(CN(C[C@H]2CC[C@H](C(=O)O)CC2)C2CCc3cc(Cl)ccc32)ccc1OCCN1C(=O)CCC1=O` (stereo partly drawn) [Example 10, trans-4-[((5-Chloro-indan-1-yl)-{4-[2-(2,5-dioxo-pyrrolidin-1-yl)-ethoxy]-3-methoxy-benzyl}-amino)-methyl]-cyclohexane-carboxylic acid], the IC50 came to 64 nM.

In the case of `COc1cc(CN(C[C@H]2CC[C@H](C(=O)O)CC2)[C@@H]2CCc3cc(Cl)ccc32)ccc1OCCN1C(=O)CCC1=O` [Example 11, trans-4-[(((R)-5-Chloro-indan-1-yl)-{4-[2-(2,5-dioxo-pyrrolidin-1-yl)-ethoxy]-3-methoxy-benzyl}-amino)-methyl]cyclohexanecarboxylic acid], the IC50 turned out to be 200 nM.

Turning to `COc1cc(CN(C[C@H]2CC[C@H](C(=O)O)CC2)[C@H]2CCc3cc(Cl)ccc32)ccc1OCCN1C(=O)CCC1=O` [Example 12, trans-4-[(((S)-5-Chloro-indan-1-yl)-{4-[2-(2,5-dioxo-pyrrolidin-1-yl)-ethoxy]-3-methoxy-benzyl}-amino)-methyl]-cyclohexanecarboxylic acid], the IC50 stood at 13 nM.

In the case of `COc1cc(CN(C[C@H]2CC[C@@H](C(=O)O)CC2)C2CCc3cc(Cl)ccc32)ccc1OCCN1C(=O)CCC1=O` (stereo partly drawn) [Example 13, cis-4-[((5-Chloro-indan-1-yl)-{4-[2-(2,5-dioxo-pyrrolidin-1-yl)-ethoxy]-3-methoxy-benzyl}-amino)-methyl]-cyclohexane-carboxylic acid], the concentration for half-maximal inhibition (IC50) came out at 1660 nM.

For `COc1cc(CN(C[C@H]2CC[C@H](C(=O)O)CC2)[C@H]2CCc3c2ccc(Cl)c3Cl)ccc1OCCN1C(=O)CCC1=O` [Example 14, trans-4-[(((S)-4,5-Dichloro-indan-1-yl)-{4-[2-(2,5-dioxo-pyrrolidin-1-yl)-ethoxy]-3-methoxy-benzyl}-amino)-methyl]-cyclohexanecarboxylic acid hydrochloride], the IC50 was determined as 25 nM.

For the compound `COc1cc(CN(C[C@H]2CC[C@H](C(=O)O)CC2)C(C)c2ccc3c(c2)CCO3)ccc1OCCN1C(=O)CSC1=O` (stereo partly drawn) [Example 15, trans-4-[([1-(2,3-Dihydro-benzofuran-5-yl)-ethyl]-{4-[2-(2,4-dioxo-thiazolidin-3-yl)-ethoxy]-3-methoxy-benzyl}-amino)-methyl]-cyclohexanecarboxylic acid], the IC50 is 37 nM.

`CC(c1ccc2c(c1)CCO2)N(Cc1ccc(OCCN2C(=O)CCC2=O)c(Cl)c1)C[C@H]1CC[C@H](C(=O)O)CC1` (stereo partly drawn) [Example 16, trans-4-({{3-Chloro-4-[2-(2,5-dioxo-pyrrolidin-1-yl)-ethoxy]-benzyl}-[1-(2,3-dihydro-benzofuran-5-yl)-ethyl]-amino}-methyl)-cyclohexanecarboxylic acid]: the IC50 worked out at 35 nM.

Consider `Cc1cc(CN(C[C@H]2CC[C@H](C(=O)O)CC2)C(C)c2ccc3c(c2)CCO3)ccc1OCCN1C(=O)CCC1=O` (stereo partly drawn) [Example 17, trans-4-[([1-(2,3-Dihydro-benzofuran-5-yl)-ethyl]-{4-[2-(2,5-dioxo-pyrrolidin-1-yl)-ethoxy]-3-methyl-benzyl}-amino)-methyl]-cyclohexanecarboxylic acid], for which the IC50 came out at 44 nM.

For the compound `CCC(c1ccc2c(c1)CCO2)N(Cc1ccc(OCCN2C(=O)CCC2=O)c(OC)c1)C[C@H]1CC[C@H](C(=O)O)CC1` (stereo partly drawn) [Example 18, trans-4-[([1-(2,3-Dihydro-benzofuran-5-yl)-propyl]-{4-[2-(2,5-dioxo-pyrrolidin-1-yl)-ethoxy]-3-methoxy-benzyl}-amino)-methyl]-cyclohexanecarboxylic acid], the IC50 turned out to be 64 nM.

Regarding `COc1cc(CN(C[C@H]2CC[C@H](C(=O)O)CC2)C(C)c2ccc3c(c2)CCO3)ccc1OCCN1C(=O)COC1=O` (stereo partly drawn) [Example 19, trans-4-[([1-(2,3-Dihydro-benzofuran-5-yl)-ethyl]-{4-[2-(2,4-dioxo-oxazolidin-3-yl)-ethoxy]-3-methoxy-benzyl}-amino)-methyl]-cyclohexanecarboxylic acid], the IC50 is 55 nM.

For the compound `O=C1CCC(=O)N1CCOc1ccc(CN(C[C@H]2CC[C@H](C(=O)O)CC2)C2CCc3cc(Cl)ccc32)cc1Cl` (stereo partly drawn) [Example 21, trans-4-{[{3-Chloro-4-[2-(2,5-dioxo-pyrrolidin-1-yl)-ethoxy]-benzyl}-(5-chloro-indan-1-yl)-amino]-methyl}-cyclohexanecarboxylic acid], the IC50 turned out to be 633 nM.

As for `CC(c1ccc2c(c1)CCO2)N(Cc1ccc(OCCN2C(=O)CN(C)C2=O)c(Cl)c1)C[C@H]1CC[C@H](C(=O)O)CC1` (stereo partly drawn) [Example 22, trans-4-({{3-Chloro-4-[2-(3-methyl-2,5-dioxo-imidazolidin-1-yl)-ethoxy]-benzyl}-[1-(2,3-dihydro-benzofuran-5-yl)-ethyl]-amino}-methyl)-cyclohexanecarboxylic acid], the IC50 was 112 nM.

`C[C@@H](c1ccc(Cl)cc1)N(Cc1ccc(OCCN2C(=O)CN(C)C2=O)c(Cl)c1)C[C@H]1CC[C@H](C(=O)O)CC1` [Example 23, trans-4-({{3-Chloro-4-[2-(3-methyl-2,5-dioxo-imidazolidin-1-yl)-ethoxy]-benzyl}-[(S)-1-(4-chloro-phenyl)-ethyl]-amino}-methyl)-cyclohexanecarboxylic acid]: the IC50 came to 116 nM.

On to `COc1cc(CN(C[C@H]2CC[C@H](C(=O)O)CC2)C2CCc3cc(Cl)ccc32)ccc1OCCN1C(=O)CSC1=O` (stereo partly drawn) [Example 24, trans-4-[((5-Chloro-indan-1-yl)-{4-[2-(2,4-dioxo-thiazolidin-3-yl)-ethoxy]-3-methoxy-benzyl}-amino)-methyl]-cyclohexanecarboxylic acid], for which the IC50 was determined as 58 nM.
